{"source": "patent US5705356A", "about": "“Reagent for invitro diagnostic determination of bicarbonate” (Trace Scientific Limited, priority 1993, dated 1998)", "key": {"[1]": {"biological_target": "T1, Glycerol Dehydrogenase (GLY.DH) (Geobacillus stearothermophilus, UniProt P32816)", "T1 sequence (P32816 1-370)": "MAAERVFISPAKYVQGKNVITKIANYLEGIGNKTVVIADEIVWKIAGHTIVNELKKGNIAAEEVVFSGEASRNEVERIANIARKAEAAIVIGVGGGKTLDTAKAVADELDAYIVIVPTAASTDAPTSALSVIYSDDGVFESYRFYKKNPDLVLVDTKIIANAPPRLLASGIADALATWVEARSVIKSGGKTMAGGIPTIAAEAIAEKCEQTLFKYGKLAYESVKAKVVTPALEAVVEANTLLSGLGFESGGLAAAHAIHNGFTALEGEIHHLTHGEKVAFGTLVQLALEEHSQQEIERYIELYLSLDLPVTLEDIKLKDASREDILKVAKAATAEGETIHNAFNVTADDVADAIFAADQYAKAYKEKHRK", "assay": "Relative activity of substrates with glycerol dehydrogenase (vs glycerol)", "assay_type": "biochemical", "settings": "relative to glycerol (100%)", "text": "Alternatively, using Glycerol Dehydrogenase (GLY.DH) as the enzyme, suitable substrates in the reaction [drawing 8] and their activity relative to glycerol (100%) are"}, "[2]": {"system": "L-Lactate Dehydrogenase (LDH)", "assay": "Relative activity of substrates with L-lactate dehydrogenase (vs L-lactate)", "assay_type": "biochemical, Lactobacillus sp.", "settings": "relative to L-Lactate", "text": "Wherein, L-Lactate Dehydrogenase (LDH) from Lactobacillus sp. is used as the enzyme in the following reaction, [drawing 10] suitable substrates and their activity relative to L-Lactate are:"}, "[3]": {"biological_target": "T2, G-6-P-DH (Saccharomyces cerevisiae, UniProt P11412)", "T2 sequence (P11412 1-505)": "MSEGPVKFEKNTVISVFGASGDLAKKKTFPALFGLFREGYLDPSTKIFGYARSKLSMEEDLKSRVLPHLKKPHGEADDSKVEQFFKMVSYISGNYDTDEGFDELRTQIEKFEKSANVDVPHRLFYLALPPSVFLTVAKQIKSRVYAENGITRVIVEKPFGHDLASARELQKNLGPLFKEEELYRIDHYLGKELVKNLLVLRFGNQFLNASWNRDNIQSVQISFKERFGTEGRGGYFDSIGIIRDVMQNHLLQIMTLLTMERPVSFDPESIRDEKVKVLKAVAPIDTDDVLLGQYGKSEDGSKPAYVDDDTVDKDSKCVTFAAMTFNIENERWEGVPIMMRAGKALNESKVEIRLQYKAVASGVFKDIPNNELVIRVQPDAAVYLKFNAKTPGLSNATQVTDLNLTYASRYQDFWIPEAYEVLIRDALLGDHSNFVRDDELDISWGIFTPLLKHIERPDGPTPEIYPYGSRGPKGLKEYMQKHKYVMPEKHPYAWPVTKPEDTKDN", "assay": "Relative reactivity of substrates with G-6-P-DH, NADP as coenzyme (vs G-6-P)", "assay_type": "biochemical, Yeast", "settings": "relative to G-6-P-DH/G-6-P pair"}, "[4]": {"biological_target": "T3, Leucine Dehydrogenase (L.D) (Bacillus cereus, UniProt P0A393)", "T3 sequence (P0A393 1-366)": "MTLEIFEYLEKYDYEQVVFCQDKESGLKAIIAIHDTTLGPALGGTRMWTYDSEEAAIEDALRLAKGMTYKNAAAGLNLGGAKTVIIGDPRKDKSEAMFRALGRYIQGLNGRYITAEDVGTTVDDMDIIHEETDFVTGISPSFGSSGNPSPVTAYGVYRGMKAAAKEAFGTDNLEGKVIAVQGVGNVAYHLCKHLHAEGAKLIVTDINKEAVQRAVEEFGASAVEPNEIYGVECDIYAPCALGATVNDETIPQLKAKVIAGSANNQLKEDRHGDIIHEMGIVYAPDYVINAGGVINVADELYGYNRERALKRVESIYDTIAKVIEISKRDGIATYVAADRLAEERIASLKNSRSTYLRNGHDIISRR", "assay": "Relative activity of substrates with leucine dehydrogenase (vs L-leucine)", "assay_type": "biochemical", "settings": "relative to L-leucine (100%)", "text": "Wherein Leucine Dehydrogenase (L.D) is used as the enzyme according to the reaction [drawing 9] suitable substrates and their activity relative to L-leucine (100%) are"}, "[5]": {"system": "Glucose Dehydrogenase (GLD)", "assay": "Relative activity of substrates with glucose dehydrogenase (vs D-glucose)", "assay_type": "biochemical", "settings": "rate of reaction relative to D-glucose (100%), NAD coenzyme", "text": "If glucose dehydrogenase is used as the enzyme, preferred substrates for reduction of the NAD coenzyme and their relative degree of cross reactivity when compared to D-Glucose are:"}, "[6]": {"biological_target": "T4, 3α-Hydroxysteroid Dehydrogenase (H.DH) (Comamonas testosteroni, UniProt P80702)", "T4 sequence (P80702 1-257)": "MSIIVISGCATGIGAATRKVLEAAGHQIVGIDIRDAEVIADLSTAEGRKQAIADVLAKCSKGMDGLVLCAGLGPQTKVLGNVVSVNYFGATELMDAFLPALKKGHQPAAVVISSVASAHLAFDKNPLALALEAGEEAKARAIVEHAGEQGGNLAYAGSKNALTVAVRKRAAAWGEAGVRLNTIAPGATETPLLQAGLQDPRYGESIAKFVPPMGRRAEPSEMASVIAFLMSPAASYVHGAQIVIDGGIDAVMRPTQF", "assay": "Relative activity of substrates with 3α-hydroxysteroid dehydrogenase (vs cholic acid)", "assay_type": "biochemical", "settings": "relative to Cholic Acid", "excerpt": "Their activities relative to Cholic Acid are also listed."}, "[7]": {"biological_target": "T5, L-Alanine Dehydrogenase (A.D) (Lysinibacillus sphaericus, UniProt P17556)", "T5 sequence (P17556 1-372)": "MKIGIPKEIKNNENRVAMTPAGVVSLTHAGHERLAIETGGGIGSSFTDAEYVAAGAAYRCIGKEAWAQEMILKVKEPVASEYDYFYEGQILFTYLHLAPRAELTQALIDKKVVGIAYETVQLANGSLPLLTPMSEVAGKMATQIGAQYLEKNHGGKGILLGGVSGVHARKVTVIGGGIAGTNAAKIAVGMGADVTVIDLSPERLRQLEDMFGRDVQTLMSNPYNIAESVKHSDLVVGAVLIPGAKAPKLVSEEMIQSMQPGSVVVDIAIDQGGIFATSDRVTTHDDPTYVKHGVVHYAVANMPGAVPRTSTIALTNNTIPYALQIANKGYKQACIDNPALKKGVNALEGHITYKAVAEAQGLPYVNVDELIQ", "assay": "Relative activity of substrate with L-alanine dehydrogenase (vs L-alanine)", "assay_type": "biochemical", "settings": "relative to L-alanine (100%)", "excerpt": "If L-Alanine Dehydrogenase (A.D) is used as the enzyme in a reaction system similar to that used for Leucine Dehydrogenase, a suitable substrate and its activity relative to L-alanine (100%) is […]"}}, "data": [{"molecule": "CC(O)C(C)O", "note": "(centres unmarked) [2,3-Butanediol]", "values": [{"measurement": "Relative Activity", "setting": "[1]", "value": 52.6, "unit": "%"}]}, {"molecule": "O=C(O)CC(=O)C(=O)O", "note": "[Oxoloacetate]", "values": [{"measurement": "Relative Activity", "setting": "[2]", "value": 36, "unit": "%"}]}, {"molecule": "N[C@H]1C(O)O[C@H](COP(=O)(O)O)[C@@H](O)[C@@H]1O", "note": "(some centres unmarked) [glucosamine-6-P]", "values": [{"measurement": "relative reactivity", "setting": "[3]", "value": 2, "unit": "%"}]}, {"molecule": "CC(C)[C@H](N)C(=O)O", "note": "[L-Valine]", "values": [{"measurement": "Relative Activity", "setting": "[4]", "value": 74, "unit": "%"}]}, {"molecule": "O[C@H]1[C@H](O)[C@@H](O)[C@H](O)[C@@H](O)[C@H]1O", "note": "[inositol]", "values": [{"measurement": "Relative Activity", "setting": "[5]", "value": 0.2, "unit": "%"}]}, {"molecule": "CCC[C@H](N)C(=O)O", "note": "[L-Norvaline]", "values": [{"measurement": "Relative Activity", "setting": "[4]", "value": 41, "unit": "%"}]}, {"molecule": "O=C(CO)[C@@H](O)[C@H](O)[C@@H](O)CO", "note": "[L-sorbose]", "values": [{"measurement": "Relative Activity", "setting": "[5]", "value": 0.3, "unit": "%"}]}, {"molecule": "N[C@@H](CS)C(=O)O", "note": "[L-Cysteine]", "values": [{"measurement": "Relative Activity", "setting": "[4]", "value": 0.3, "unit": "%"}]}, {"molecule": "OC[C@H]1O[C@H](O[C@H]2[C@H](O)[C@@H](O)[C@H](O)O[C@@H]2CO)[C@H](O)[C@@H](O)[C@@H]1O", "note": "[maltose]", "values": [{"measurement": "Relative Activity", "setting": "[5]", "value": 3.9, "unit": "%"}]}, {"molecule": "OCC(O)CCl", "note": "(stereo not drawn) [Glycerol-α-monochlorohydrin]", "values": [{"measurement": "Relative Activity", "setting": "[1]", "value": 48.5, "unit": "%"}]}, {"molecule": "O=P(O)(O)OC[C@H]1OC(O)C[C@@H](O)[C@@H]1O", "note": "(some centres unmarked) [2-deoxyglucose-6-P]", "values": [{"measurement": "relative reactivity", "setting": "[3]", "value": 18, "unit": "%"}]}, {"molecule": "OCC(O)CO", "note": "[glycerol]", "values": [{"measurement": "Relative Activity", "setting": "[1]", "value": 100, "unit": "%"}]}, {"molecule": "OC[C@H]1O[C@@H](O)[C@H](O)[C@@H](O)[C@@H]1O", "note": "[D-Glucose]", "values": [{"measurement": "Relative Activity", "setting": "[5]", "value": 100, "unit": "%"}]}, {"molecule": "CC[C@H](C)[C@H](N)C(=O)O", "note": "[L-Isoleucine]", "values": [{"measurement": "Relative Activity", "setting": "[4]", "value": 58, "unit": "%"}]}, {"molecule": "C[C@H](CCC(=O)O)[C@H]1CC[C@H]2[C@@H]3CC[C@@H]4C[C@H](O)CC[C@]4(C)[C@H]3CC[C@]12C", "note": "[Lithocholic Acid]", "values": [{"measurement": "Relative Activity", "setting": "[6]", "value": 96, "unit": "%"}]}, {"molecule": "O=C(CO)[C@@H](O)[C@H](O)[C@H](O)CO", "note": "[D-fructose]", "values": [{"measurement": "Relative Activity", "setting": "[5]", "value": 0.8, "unit": "%"}]}, {"molecule": "CC(C)C[C@H](N)C(=O)O", "note": "[L-leucine]", "values": [{"measurement": "Relative Activity", "setting": "[4]", "value": 100, "unit": "%"}]}, {"molecule": "CSCC[C@H](N)C(=O)O", "note": "[L-Methionine]", "values": [{"measurement": "Relative Activity", "setting": "[4]", "value": 0.6, "unit": "%"}]}, {"molecule": "C[C@H](N)C(=O)O", "note": "[L-alanine]", "values": [{"measurement": "Relative Activity", "setting": "[7]", "value": 100, "unit": "%"}]}, {"molecule": "Etiocholic Acid", "values": [{"measurement": "Relative Activity", "setting": "[6]", "value": 60, "unit": "%"}]}, {"molecule": "OCCO", "note": "[Ethylene glycol]", "values": [{"measurement": "Relative Activity", "setting": "[1]", "value": 7.8, "unit": "%"}]}, {"molecule": "OC[C@H]1OC(O)[C@@H](O)[C@@H](O)[C@@H]1O", "note": "(stereo partly drawn) [D-mannose]", "values": [{"measurement": "Relative Activity", "setting": "[5]", "value": 2.4, "unit": "%"}]}, {"molecule": "OC[C@@H](O)[C@@H](O)[C@H](O)[C@@H](O)CO", "note": "[D-sorbitol]", "values": [{"measurement": "Relative Activity", "setting": "[5]", "value": 0.1, "unit": "%"}]}, {"molecule": "N[C@@H](CO)C(=O)O", "note": "[L-serine]", "values": [{"measurement": "Relative Activity", "setting": "[7]", "value": 5, "unit": "%"}]}, {"molecule": "xylose", "values": [{"measurement": "Relative Activity", "setting": "[5]", "value": 8.9, "unit": "%"}]}, {"molecule": "O=P(O)(O)OC[C@H]1OC(O)[C@H](O)[C@@H](O)[C@H]1O", "note": "(some centres unmarked) [galactose-6-P]", "values": [{"measurement": "relative reactivity", "setting": "[3]", "value": 25, "unit": "%"}]}, {"molecule": "CCCC[C@H](N)C(=O)O", "note": "[L-Norleucine]", "values": [{"measurement": "Relative Activity", "setting": "[4]", "value": 10, "unit": "%"}]}, {"molecule": "OC[C@H]1O[C@@H](O[C@H]2[C@H](O)[C@@H](O)C(O)O[C@@H]2CO)[C@H](O)[C@@H](O)[C@H]1O", "note": "(stereo partly drawn) [D-lactose]", "values": [{"measurement": "Relative Activity", "setting": "[5]", "value": 1.2, "unit": "%"}]}, {"molecule": "OC[C@H]1OC(O)[C@H](O)[C@@H](O)[C@H]1O", "note": "(stereo partly drawn) [D-galactose]", "values": [{"measurement": "Relative Activity", "setting": "[5]", "value": 0.1, "unit": "%"}]}]}
